Reference: PMC8409943, “Study on mechanism of low bioavailability of black tea theaflavins by using Caco-2 cell monolayer” (Drug Delivery, 2021)
Read-outs that look alike come from different tables or passages of the source.

Legend:
[1] = system: Caco-2 cells; test: Cytotoxicity study by CCK-8 method; type: cell-based, Human; settings: 24 h
Procedure: Standard stock solutions (1000 μM) of each theaflavin were prepared in 0.1% dimethyl sulfoxide (DMSO) in deionized water, and diluted with fresh DMEM to 100, 200, 300, 400, and 500 µmol/L respectively. Each inhibitor was prepared as instructions. The cytotoxicity of theaflavins and four inhibitors of multidrug resistant associated proteins to Caco-2 cells was examined by CCK-8 method (Song et al., [2014]). Briefly, Caco-2 cells were inoculated onto 96-well microtiter plates at a density of 1 × 10^4 cells per well. After incubation at 37 °C for 24 h, cells were incubated for another 24 h with different concentrations of theaflavins, followed by adding 10 μL CCK-8 solution and 1 h incubation at 37 °C. The absorbance (OD) value was determined at 450 nm using a microplate reader (ELX-800, Bio-Tek Instruments Inc., Winooski, USA). Four inhibitors were used in this study: Vep, inhibitor of P-gp; CsA, inhibitor and substrate of P-gp; MK-571, inhibitor of MRP1, MRP2 and MRP3; FTC, inhibitor of BCRP (Silbermann et al., [1989]; König et al., [1999]; Renes et al., [1999]; Ali et al., [2017]). The cytotoxicity of Vep, CsA, MK-571 or FTC was also determined by CCK-8 assay. […] To determine the effects of inhibitors on the cytotoxicity of theaflavins, cells were incubated with both different theaflavin monomers (100, 200, 300, 400, and 500 μM) and different inhibitors. IC50, the half inhibitory concentration, was calculated from the cell viability. The cell viability was calculated by the following equation: (1) Cell viability (%)=(ODsample− ODblank)/(ODcontrol− ODblank)×100% where ODsample is the absorbance value of cell + sample + complete medium; ODblank, the absorbance value of complete medium; ODcontrol, the absorbance value of cell + complete medium.

[2] = Stability (recovery rate) of theaflavins in HBSS and DMEM in the absence of cells
Procedure: Standard stock solutions of each theaflavin were diluted with HBSS and DMEM respectively, obtaining final test solutions of 200 μM. The recovery rate of theaflavins in HBSS and in DMEM, in the absence of cells, was analyzed by HPLC after incubation at 37 °C for 0.5, 1, 2, 3, 4, 8, 12, and 24 hours, respectively. The recovery rate was used to measure the stability and calculated as follows: (2) Recovery rate=Ct/C0× 100% where Ct is the final concentration at different incubation time (μM); C0, the initial concentration (μM).
Theaflavins were characterized by high performance liquid chromatography (HPLC, Agilent 1100VL, Agilent Technologies Inc., CA, USA). Briefly, samples were extracted with 70% methanol, centrifuged at 685 × g for 10 min, and filtered through a 0.45 μm membrane (Nylon 66). The separation was performed by an ODS reversed-phase column (4.6 mm i.d.×250 mm, SB-C18, Agilent Technologies Inc., CA, USA) at a flow rate of 0.7 mL/min. Chromatographic conditions were slightly modified according to China National Standard (GB/T 30483-2013, GAQSIQ, P. R. China, 2013). Samples were eluted with a gradient of solvent A (100 mL water with 9 mL acetonitrile and 2 mL acetic acid) and B (100 mL acetonitrile with 17.8 mL water and 2 mL acetic acid) as follows: 0–5 min, 95% A; 5–10 min, 90% A; 10–20 min, 70% A; 20–25 min, 65% A; 25–30 min, 70% A; 30–35 min, 100% A. Theaflavins were detected using an ultraviolet detector at a wavelength of 278 nm.

[3] = Transepithelial transport of theaflavins across Caco-2 cell monolayers, with or without efflux transporter inhibitors; type: in vitro ADME, Human; settings: human; for recovery at 2 h, 200 μM: Caco-2, Caco-2 monolayers, after 2 h incubation; for efflux ratio at 2 h, 200 μM / Papp A→B at 2 h, 200 μM / Papp B→A at 2 h, 200 μM: 2 h incubation
Procedure: (§1) For transport studies, Caco-2 cells were seeded at a density of 3 × 10^5 cells per well in Transwell® inserts (polycarbonate membrane, 24 mm i.d., 0.4 μm pore size, Corning Costar Corp., NY, USA) in 6-well plates (Zhang et al., [2004]). […] The inserts were washed twice with HBSS buffer and equilibrated at 37 °C for 30 min. Standard stock solutions of each theaflavin were diluted to 200 μM with HBSS. For absorptive transport, theaflavins in 1.5 mL HBSS was added into the AP side and 2.6 mL HBSS was added into the BL side of all inserts. For secretory transport, 1.5 mL HBSS and 2.6 mL theaflavins in HBSS were added into AP side and BL side, respectively. Samples were collected from the receiving chamber after 0.5, 1, 2, 3, or 4 h incubation and then were lyophilized at −110 °C in a CoolSafe freeze dryer (LaboGene ApS, Bjarkesvej, Denmark) for HPLC analysis. The recovery rate of theaflavins in the transport was calculated from the above Equation (2).
(§2) Prior to transport inhibition experiment, cells were preincubated for 30 min with 100 μM Vep, 100 μM CsA, 100 μM MK-571, or 10 μM FTC in both sides (Vaidyanathan & Walle, [2001]; Wang et al., [2008]). Then, the absorptive and secretory experiments were performed in the presence of inhibitors as described above. Samples were collected from the receiving chamber after 2 h incubation and then were lyophilized at −110 °C for HPLC analysis.
(§3) The apparent permeability coefficient (Papp, cm/s) was calculated as follows: (3) Papp= dQ/dt×V/(A×C0) where dQ/dt is the variation in concentration on the receiving side over time (μM/s); V, the volume of the solution collected from the receiving chamber (cm^3); A, the area of the membrane (4.67 cm^2); C0, the initial concentration of theaflavins in the donor chamber (μM).
(§4) The efflux ratio was calculated as follows: (4) Efflux ratio= Papp(BL−AP)/Papp(AP−BL) where Papp, apparent permeability coefficient; AP-BL, apical to basolateral transport; BL-AP, basolateral to apical transport.

[4] = system: Caco-2 cell monolayers; test: as above; type: in vitro ADME, Human; settings: absorptive transport, 2 h
Procedure: as §1, §2, §3, §4

[5] = system: Caco-2 monolayers; test: HPLC-MS/MS identification of metabolites in the absorptive transport of Caco-2 monolayers; type: in vitro ADME, Human; settings: 200 µM, 2 h, AP side or BL side of Caco-2 monolayers
Procedure: TF3G, TF3’G and TFDG were dissolved in DMSO (≤0.5%), and then, diluted with HBSS. Caco-2 cells were incubated with 200 µM TF3G, TF3’G and TFDG at 37 °C for 2 h. Samples collected from both AP side and BL side were measured by HPLC with MS detection, and the metabolites were determined in terms of the standard TF, TF3G, TF3’G, TFDG, and gallic acid (Table S2).

[6] = system: Caco-2 cells; test: Intracellular accumulation of theaflavin monomers; settings: 200 μM theaflavins, 2 h incubation, 37 °C
Procedure: Caco-2 cells were seeded at a density of 8 × 10^4 cells per well in 6-well plates (Ni et al., [2020]). After differentiation over a period of 21 days, cells were incubated with 2.0 mL of 200 μM theaflavins at 37 °C. After 2 h incubation, phosphate buffer was added to wash cells in the plate. Then, cell lysates were prepared with RIPA lysis buffer containing 1 mM PMSF as a protease inhibitor and centrifugated at 12,000 rpm for 30 min. Total protein contents were quantified using a BCA estimation kit according to the manufacturer’s instructions (Beyotime). Theaflavins were quantified by HPLC analysis and the intracellular accumulation was expressed as µg theaflavin/mg protein.
Theaflavins were characterized by high performance liquid chromatography (HPLC, Agilent 1100VL, Agilent Technologies Inc., CA, USA). Briefly, samples were extracted with 70% methanol, centrifuged at 685 × g for 10 min, and filtered through a 0.45 μm membrane (Nylon 66). […] Samples were eluted with a gradient of solvent A (100 mL water with 9 mL acetonitrile and 2 mL acetic acid) and B (100 mL acetonitrile with 17.8 mL water and 2 mL acetic acid) as follows: 0–5 min, 95% A; 5–10 min, 90% A; 10–20 min, 70% A; 20–25 min, 65% A; 25–30 min, 70% A; 30–35 min, 100% A. Theaflavins were detected using an ultraviolet detector at a wavelength of 278 nm.

[7] = system: MRP2; test: Quantitative real-time PCR, mRNA level of MRP2; type: cell-based, Human; settings: Caco-2 cells, 200 μM, 2 h, vs control
Procedure: Cell culture and treatment were performed as described above in 2.6. Total RNA was extracted from Caco-2 cells by the cell RNA extraction kit, and then reverse-transcribed by the cDNA synthesis kit. Gene amplification and quantitative detection were performed as previously described (Ai et al., [2019]). Target mRNA levels were normalized to β-actin mRNA levels. Data were calculated by the 2^−ΔΔCT method.

Structure (SMILES): O=c1c(O)cc([C@H]2Oc3cc(O)cc(O)c3C[C@H]2O)cc2c([C@H]3Oc4cc(O)cc(O)c4C[C@H]3O)cc(O)c(O)c12 [TF, theaflavin]
- IC50 ([1]; + CsA): 584 ± 26.9 µM
- IC50 ([1]; + FTC): 492 ± 34.2 µM
- IC50 ([1]; + MK-571): 463 ± 80.8 µM
- IC50 ([1]; + VEP): 517 ± 66.2 µM
- IC50 ([1]; Homo sapiens, Ctrl (no inhibitor)): 681 ± 19.2 µM
- degraded due to the structural instability ([2]; 2 h): 9.3%
- Recovery rate in DMEM ([2]; pH 6.0 DMEM without cells, 200 μM, 37 °C, 2 h incubation): < 45%
- recovery at 2 h, 200 μM ([3]; apical to basolateral, read-out: recovery of theaflavins in absorptive transport): 39.8%
- recovery at 2 h, 200 μM ([3]; basolateral to apical, read-out: recovery of theaflavins in secretory transport): 48.9%
- efflux ratio at 2 h, 200 μM ([3]; Caco-2, Papp(BL−AP)/Papp(AP−BL), Ctrl (no inhibitor)): 1.24 ± 0.09
- Papp A→B at 2 h, 200 μM ([3]; Caco-2, absorptive transport, 200 μM theaflavin in HBSS, Ctrl (no inhibitor)): 0.277 ± 0.009 ×10⁻⁶ cm/s
- Papp B→A at 2 h, 200 μM ([3]; Caco-2, secretory transport, 200 μM theaflavin in HBSS, Ctrl (no inhibitor)): 0.342 ± 0.014 ×10⁻⁶ cm/s
- efflux ratio at 2 h, 200 μM ([3]; Caco-2, with 10 μM FTC (BCRP inhibitor), + 10 μM FTC (BCRP inhibitor)): 1.05 ± 0.08
- Papp A→B at 2 h, 200 μM ([3]; Caco-2, with 10 μM FTC (BCRP inhibitor), absorptive transport, + 10 μM FTC (BCRP inhibitor)): 0.31 ± 0.01 ×10⁻⁶ cm/s
- Papp B→A at 2 h, 200 μM ([3]; Caco-2, with 10 μM FTC (BCRP inhibitor), secretory transport, + 10 μM FTC (BCRP inhibitor)): 0.324 ± 0.013 ×10⁻⁶ cm/s
- efflux ratio at 2 h, 200 μM ([3]; Caco-2, with 100 μM CsA (P-gp inhibitor and substrate), + 100 μM CsA (P-gp inhibitor and substrate)): 0.62 ± 0.05
- Papp A→B at 2 h, 200 μM ([3]; Caco-2, with 100 μM CsA (P-gp inhibitor and substrate), absorptive transport, + 100 μM CsA (P-gp inhibitor and substrate)): 0.565 ± 0.019 ×10⁻⁶ cm/s
- Papp B→A at 2 h, 200 μM ([3]; Caco-2, with 100 μM CsA (P-gp inhibitor and substrate), secretory transport, + 100 μM CsA (P-gp inhibitor and substrate)): 0.348 ± 0.014 ×10⁻⁶ cm/s
- efflux ratio at 2 h, 200 μM ([3]; Caco-2, with 100 μM Vep (P-gp inhibitor), + 100 μM Vep (P-gp inhibitor)): 0.73 ± 0.05
- Papp A→B at 2 h, 200 μM ([3]; Caco-2, with 100 μM Vep (P-gp inhibitor), absorptive transport, + 100 μM Vep (P-gp inhibitor)): 0.415 ± 0.014 ×10⁻⁶ cm/s
- Papp B→A at 2 h, 200 μM ([3]; Caco-2, with 100 μM Vep (P-gp inhibitor), secretory transport, + 100 μM Vep (P-gp inhibitor)): 0.301 ± 0.012 ×10⁻⁶ cm/s
- increase of the influx ([4]; with CsA vs control): 2.0 times
- fold increase in the influx ([4]; with MK-571 vs control): 1.47 fold
- fold increase in the influx ([4]; with verapamil vs control): 1.50 fold
- conjugated metabolites (glucuronidated, sulfated and methylated) [5]: not detected
- Contents of theaflavins absorbed in Caco-2 cells [6]: -
- decrease of mRNA (transcriptional) level of MRP2 [7]: 38.73%
